Series [1] has as its target BACE1 (Homo sapiens (Human), UniProt P56817). Put plainly: BACE1 binding assay (SPA-based, radioligand). As to conditions: pH 4.5, Ki=IC50/(1+L/Kd). The method, then: The binding assay was performed as SPA-based assay using a biotinylated form of human BACE1 recombinantly expressed and subsequently purified from Freestyle HEK293 cells. The binding assay was run in a 50 mM sodium acetate buffer, pH 4.5 containing 50 mM NaCl and 0.03% Tween-20 in white clear bottom 384 plates (Corning #3653). 10 nM (final concentration) radioligand ([^3H]-N-((1S,2R)-1-benzyl-3-cyclopropylamino-2-hydroxy-propyl)-5-(methanesulfonyl-methyl-amino)-N-((R)-1-phenyl-ethyl)-isophthalamide) (TRQ11569 purchased from GE Healthcare) was mixed with test compound at a given concentration, 6 nM (final concentration) human BACE1 and 25 μg Streptavidin coated PVT core SPA beads (RPNQ0007, GE Healthcare Life Sciences) in a total volume of 40 μl. Several concentrations of each test compound were tested in the assay for IC50 determination. The plates were incubated for one hour at room temperature and counted in a Wallac Trilux counter. Total and non-specific binding were determined using buffer and 1 μM (final concentration) of the high affinity BACE1 reference inhibitor (S)-6-[3-chloro-5-(5-prop-1-ynyl-pyridin-3-yl)-thiophen-2-yl]-2-imino-3,6-dimethyl-tetrahydro-pyrimidin-4-one, respectively. For each test compound, a IC50 value (the concentration mediating 50% inhibition of the specific binding of the radioligand) was determined from concentration-response curve and used to calculate the Ki from the equation Ki=IC50/(1+L/Kd), where L and Kd are the final concentration of the radioligand used in the assay and the dissociation constant of the radioligand, respectively. The Kd of the radioligand was determined from saturation binding experiments.

The nature of series [2]: Bioanalysis of brain and plasma samples (exposure, UPLC-MS/MS). The settings on record: male, Sprague Dawley, po, 3 hours post dose; for Kp at 3 h: brain/plasma, rat, read-out: Brain/Plasma ratio; for concentration at 3 h: read-out: Exp. Type of series: in vivo, rat. The protocol:
Young adult Male Sprague Dawley rats of approximately 250 g weight were purchased from Charles River and received 0-30 mg/kg of vehicle (10% HP betaCD+1M MeSO4, pH 2.5) or test compounds (dissolved in vehicle) only by oral gavage (p.o). The compounds are dosed at a volume of […]. Cohorts of 5-10 animals were established for each treatment condition.
At T=180 minutes after initial dosing the animals were stunned and decapitated with a guillotine. Trunk-blood was sampled in EDTA coated tubes after decapitation of the animal. The blood was centrifuged at 2200 G at 4° C. for 15 minutes and the plasma was collected and frozen at −80° C. The blood was aliquoted for Aβ ELISA and DMPK analysis. Immediately following sacrifice, the brain was extracted and split into 2 halves. The right hemibrains were snap frozen on dry ice and stored at −80° C. The left half was dissected; with the front forebrain taken for Aβ ELISA and the remainder used for DMPK analysis. These samples were also snap frozen on dry ice and stored at −80° C. until use for analysis.
TC was determined in plasma and brain homogenate using UltraPerformance LC® (UPLC®) chromatography followed by tandem-MS (MS/MS) detection.
Brain homogenate was prepared by homogenizing the brain 1:4 (v/v) with water:2-propanol:DMSO (50:30:20 v/v/v) followed by centrifugation and collection of the supernatant. Calibration standards and QC samples were prepared using a Hamilton robot. 150 μL of ISTD in acetonitrile (1 ng/mL ISTD) was added to 25 μL of calibration standards, QC samples and test samples (plasma and brain homogenate) using a Biomek robot. After centrifugation (6200 g, 4° C., 20 min) 100 μL supernatant from each sample was transferred to a new plate and mixed with 100 μL water with 0.1% formic acid using a Biomek robot (method file InVivo transfer). After a quick centrifugation (6200 g, 4° C., 5 min) the samples were placed in the auto-sampler.
MS/MS detection was done with an Applied Biosystems Sciex API 4000 instrument in positive-ion electrospray ionisation mode. TC and ISTD were detected at a parent>daughter mass to charge ratio (m/z). Nitrogen was used for the nebulizer and collision gases. The peak area correlated linearly with the plasma and brain concentration of the analytes in the range of 1.00-1000 ng/mL plasma and 5.00-5000 ng/g brain (corrected for dilution). If the plasma/brain sample drug concentration was above 1000 ng/mL or 5000 ng/g, the sample was diluted appropriately in blank plasma/blank brain homogenate before analysis.
• Waters Acquity UPLC HSS C18 SB (pH 2-8) 1.8 μm, 2.1×30 mm. • Mobile phase A: 0.1% aq. formic acid or 0.1% aq. ammonium hydroxide • Mobile phase B: Acetonitrile with 0.1% aq. formic acid or 0.1% aq. ammonium hydroxide. • Weak wash: Methanol • Strong wash: Acetonitrile/Isopropanol/formic acid (50/50/2 v/v/v) • Flow: 0.6 mL/min • Run time: 3 min. • To waste: 0-0.5 min • Temperature: 40° C. Gradient: […]
Compounds 11 and 15 were administered at doses of 10 mg/kg p.o. and brain and plasma samples were collected at 3 hours post dose and the following exposures were measured as described above.

pKi: −log10 of the molar value. Where two headings read alike, the source gives them in different places.

This passage reports Ki, Kp and concentration results from US10058540B2, “2-amino-5,5-difluoro-6-(fluoromethyl)-6-phenyl-3,4,5,6-tetrahydropyridines as BACE1 inhibitors” (H. Lundbeck A/S, priority 2014, dated 2018).

Usually pKi stands for −log10 of the Ki, conventionally taken in molar units. A lower pKi goes with a large Ki.

Chain of BACE1 (P56817 46-501): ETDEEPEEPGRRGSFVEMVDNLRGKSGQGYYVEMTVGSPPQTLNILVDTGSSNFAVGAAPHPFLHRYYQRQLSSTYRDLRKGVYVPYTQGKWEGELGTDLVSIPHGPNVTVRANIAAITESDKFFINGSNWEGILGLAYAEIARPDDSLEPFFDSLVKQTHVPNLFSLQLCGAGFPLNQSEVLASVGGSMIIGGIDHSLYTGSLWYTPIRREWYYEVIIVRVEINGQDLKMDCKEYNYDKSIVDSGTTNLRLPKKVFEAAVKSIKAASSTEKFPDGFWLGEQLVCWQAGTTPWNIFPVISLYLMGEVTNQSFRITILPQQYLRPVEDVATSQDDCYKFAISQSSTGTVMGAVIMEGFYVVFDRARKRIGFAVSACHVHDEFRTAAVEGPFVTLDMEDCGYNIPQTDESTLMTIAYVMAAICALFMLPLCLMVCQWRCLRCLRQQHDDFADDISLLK

As for `COc1cnc(C(=O)Nc2cc(F)c(F)c([C@@]3(CF)N=C(N)CCC3(F)F)c2)cn1` [Compound 11, (S)-N-(3-(6-amino-3,3-difluoro-2-(fluoromethyl)-2,3,4,5-tetrahydropyridin-2-yl)-4,5-difluorophenyl)-5-methoxypyrazine-2-carboxamide], the pKi in series [1] is 7.85. The Kp at 3 h in series [2] (10 mg/kg p.o.) was 1.8; in series [2] (30 mg/kg p.o.), 1.3. Further, the concentration at 3 h in series [2] (rat brain, 10 mg/kg p.o.) was determined as 1760 ng/g; in series [2] (rat brain, 30 mg/kg p.o.), 4210 ng/g; in series [2] (rat plasma, 10 mg/kg p.o.), 1120 ng/g; in series [2] (rat plasma, 30 mg/kg p.o.), 3290 ng/g.
